Key:
HUVEC [1] = assay: Nitric oxide assay in HUVEC; type: cell-based, human; details: 150 μg/ml TP508 vs 20 μM A23187, 1 h, n=4 (p>0.05)
rat aortic rings = assay: Muscle-bath assay, carbachol-induced vasorelaxation of rat aortic rings; set-up: species or system rat (Sprague Dawley); details: no TP508, 500 nM norepinephrine 10 min, cumulative 750 nM carbachol; n=3 aortas
HUVEC [2] = assay: Inhibition of HUVEC adhesion to immobilised fibrinogen by soluble peptide; type: cell-based, human; details: wells coated with 1 μg/ml fibrinogen; 30 min, n=3
HUVEC [3] = assay: Adhesion of HUVEC to immobilised TP508 peptides; type: cell-based, human; details: calcein AM-labelled cells, 30 min, 37°C, fluorescence, n=3
integrin αvβ3 [4] = target: T1, integrin αvβ3 (Homo sapiens, UniProt P05106+P06756); assay: Surface plasmon resonance, binding to integrin αvβ3; details: BIAcore 2000, CM5 chip, 1,290 RU RAD-TP508, αvβ3 0.053 to 1.06 μM
T1 sequence (P06756 31-889 limits assumed): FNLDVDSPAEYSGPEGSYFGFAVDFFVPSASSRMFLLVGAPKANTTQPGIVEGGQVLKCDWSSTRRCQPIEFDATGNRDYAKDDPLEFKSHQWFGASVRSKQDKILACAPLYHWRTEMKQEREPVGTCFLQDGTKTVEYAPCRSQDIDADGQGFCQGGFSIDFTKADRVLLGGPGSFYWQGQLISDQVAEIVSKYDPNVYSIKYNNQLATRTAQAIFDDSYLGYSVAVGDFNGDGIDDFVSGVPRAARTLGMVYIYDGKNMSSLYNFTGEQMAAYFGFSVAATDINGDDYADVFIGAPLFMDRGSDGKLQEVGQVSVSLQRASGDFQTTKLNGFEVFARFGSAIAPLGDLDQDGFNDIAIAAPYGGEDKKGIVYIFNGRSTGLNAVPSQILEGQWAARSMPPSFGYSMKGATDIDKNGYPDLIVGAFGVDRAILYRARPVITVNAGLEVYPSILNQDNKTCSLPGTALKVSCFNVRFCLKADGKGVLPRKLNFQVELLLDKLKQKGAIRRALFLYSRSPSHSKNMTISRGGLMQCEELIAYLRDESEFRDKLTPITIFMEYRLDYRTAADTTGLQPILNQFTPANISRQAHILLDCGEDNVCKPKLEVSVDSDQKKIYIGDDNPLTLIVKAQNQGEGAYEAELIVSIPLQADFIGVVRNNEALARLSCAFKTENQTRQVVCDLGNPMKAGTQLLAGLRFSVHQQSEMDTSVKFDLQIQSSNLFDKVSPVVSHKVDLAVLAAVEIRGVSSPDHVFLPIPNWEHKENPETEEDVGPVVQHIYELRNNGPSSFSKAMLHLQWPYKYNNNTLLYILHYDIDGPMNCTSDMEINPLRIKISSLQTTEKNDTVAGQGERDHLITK
T1 sequence (P06756 891-1048 partner limits assumed): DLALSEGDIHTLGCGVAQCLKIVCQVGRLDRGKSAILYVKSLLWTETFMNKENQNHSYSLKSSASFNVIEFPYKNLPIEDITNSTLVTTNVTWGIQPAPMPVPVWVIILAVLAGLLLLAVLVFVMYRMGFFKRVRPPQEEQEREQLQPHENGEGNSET
T1 sequence (P05106 27-788): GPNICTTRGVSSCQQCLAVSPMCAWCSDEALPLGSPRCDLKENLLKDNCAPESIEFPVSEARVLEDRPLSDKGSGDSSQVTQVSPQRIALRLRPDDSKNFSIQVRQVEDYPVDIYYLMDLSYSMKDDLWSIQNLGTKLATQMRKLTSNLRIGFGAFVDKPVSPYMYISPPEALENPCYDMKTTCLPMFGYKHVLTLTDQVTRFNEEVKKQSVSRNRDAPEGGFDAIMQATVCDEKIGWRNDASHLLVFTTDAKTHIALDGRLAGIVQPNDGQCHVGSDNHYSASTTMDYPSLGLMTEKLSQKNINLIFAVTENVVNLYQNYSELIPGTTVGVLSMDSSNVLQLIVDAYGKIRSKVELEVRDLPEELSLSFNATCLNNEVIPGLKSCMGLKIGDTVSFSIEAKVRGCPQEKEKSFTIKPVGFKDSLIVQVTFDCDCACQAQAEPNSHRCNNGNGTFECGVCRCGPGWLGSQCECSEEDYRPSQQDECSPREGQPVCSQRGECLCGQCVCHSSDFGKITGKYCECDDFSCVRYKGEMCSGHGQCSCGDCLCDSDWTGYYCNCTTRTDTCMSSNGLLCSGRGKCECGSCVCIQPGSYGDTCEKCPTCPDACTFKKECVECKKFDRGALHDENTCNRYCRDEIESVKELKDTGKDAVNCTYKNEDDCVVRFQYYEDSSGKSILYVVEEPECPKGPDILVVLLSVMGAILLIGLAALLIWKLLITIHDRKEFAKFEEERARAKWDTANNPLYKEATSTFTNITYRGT

integrin αvβ3 [5] = target: T1, integrin αvβ3; assay: Adhesion of HEK-αvβ3 cells to immobilised TP508 peptides; type: cell-based; details: calcein AM-labelled cells, 30 min, 37°C, fluorescence (Ex485/Em530), n=3
integrin αvβ3 [6] = target: T1, integrin αvβ3; assay: Inhibition of HEK-αvβ3 adhesion to immobilised fibrinogen by soluble peptide; type: cell-based; details: wells coated with 1 μg/ml fibrinogen; 30 min, n=3
endothelial cells = details: thrombin immobilised to a surface, ref [15]–[17]; cited from earlier work
αvβ3 = details: read-out: affinity of αvβ3 to ligand; ref [30]–[31]; cited from earlier work

CNc1ccc2oc(C[C@H]3O[C@@]4(CC[C@H]3C)O[C@H]([C@H](C)C(=O)c3ccc[nH]3)[C@H](C)C[C@H]4C)nc2c1C(=O)O [A23187]
NO induction by TP508 compared with A23187 (HUVEC [1]): a potent inducer of NO

C[N+](C)(C)CCOC(N)=O [carbachol]
vasorelaxation by carbachol in rings not treated with TP508, 750 nM (rat aortic rings): 20%

AGYKPDEGKRADACEGDSGGPFV [RAD-TP508]
effect of soluble peptide on HUVEC adhesion to immobilised fibrinogen (HUVEC [2]): did not affect HUVEC adhesion to immobilised fibrinogen | adhesion of HUVEC to immobilised peptide (HUVEC [3]): did not support HUVEC adhesion | binding of αvβ3 to coupled peptide (SPR) (integrin αvβ3 [4]): No binding | adhesion of HEK-αvβ3 cells to immobilised peptide (integrin αvβ3 [5]): did not support HEK-αvβ3 adhesion

GRGDSP
effect of soluble peptide on HEK-αvβ3 adhesion to immobilised fibrinogen (integrin αvβ3 [6]): effectively inhibited cell adhesion

KAPSEVDKAGDRDGYGFCGGPGE [scrTP508]
effect of soluble peptide on HUVEC adhesion to immobilised fibrinogen (HUVEC [2]): did not affect HUVEC adhesion to immobilised fibrinogen | adhesion of HUVEC to immobilised peptide (HUVEC [3]): did not support HUVEC adhesion | adhesion of HEK-αvβ3 cells to immobilised peptide (integrin αvβ3 [5]): did not support HEK-αvβ3 adhesion

Thrombin
endothelial cell adhesion to immobilised thrombin (endothelial cells): support endothelial cell adhesion in an RGD-dependent manner

fibrinogen: Human fibrinogen
Kd (αvβ3): 64 nM

vitronectin: physiological ligand of αvβ3
Kd (αvβ3): 27 nM

Reference: paper PMC4540356 (Thrombosis and haemostasis, 2010)
